Experiments:
PDE10A = PDE10A (Homo sapiens (Human), UniProt Q9Y233); assay: Measurement of PDE activity (HTRF cAMP kit, recombinant PDE); format: biochemical; conditions: recombinant PDE10, 20 nM cyclic nucleotide substrate, 60 minutes at 29 C
Procedure: The recombinant PDE proteins are used in in vitro enzymatic reaction for measurement of PDE activity. These recombinant proteins, including PDE10A (human, rat and mouse PDE10) and isoforms of PDEs 1, 3, 4, and 5, were purchased from commercial vendor BPS Bioscience. The enzymatic activity of PDEs was determined by cAMP measurement kit from CisBio (IBA) using HTRF technology.
The PDE enzymatic reaction was carried out in assay buffer (20 mM Tris-HCl pH7.5, 10 mM MgCl2, 0.1% bovine serum albumin) containing enzyme and substrate. […] The substrate cyclic nucleotide (cAMP or cGMP) concentration used in the assay was 20 nM for PDE10, and 100 nM for other PDEs. The inhibitory effect of compound was determined by incubating various concentration of inhibitor in the enzymatic assay. […] Next, the compound at varying concentration was mixed with PDE enzyme. The reaction was initiated by addition of cyclic nucleotide substrate, and incubated for 60 minutes at 29 C. The reaction was stopped by addition of lysis buffer from assay kit. The cAMP-d2 and anti-cAMP cryptate in the lysis buffer detected the level of cAMP left from the PDE hydrolysis reaction. […] Thus, IC50 value of inhibitor can be obtained by plotting inhibitor concentration against PDE activity at that concentration.

[1] = Microsomal half-life / microsomal clearance, rat liver microsomes; format: in vitro ADME; conditions: 0.5 μM test substance, 0.25 mg microsomal protein/ml, pH 7.4, 37° C.
Procedure: (§1) The metabolic stability of the compounds of the invention was determined in the following assay.
(§2) The test substances were incubated in a concentration of 0.5 μM as follows:
(§3) 0.5 μM test substance are preincubated together with liver microsomes from different species (from rat, human or other species) (0.25 mg of microsomal protein/ml) in 0.05 M potassium phosphate buffer of pH 7.4 in microtiter plates at 37° C. for 5 min. The reaction is started by adding NADPH (1 mg/mL). After 0, 5, 10, 15, 20 and 30 min, 50 μl aliquots are removed, and the reaction is immediately stopped and cooled with the same volume of acetonitrile. The samples are frozen until analyzed. The remaining concentration of undegraded test substance is determined by MSMS. The half-life (T1/2) is determined from the gradient of the signal of test substance/unit time plot, it being possible to calculate the half-life of the test substance, assuming first order kinetics, from the decrease in the concentration of the compound with time. The microsomal clearance (mCl) is calculated from mCl=ln 2/T1/2/(content of microsomal protein in mg/ml)×1000 [ml/min/mg] (modified from references: Di, The Society for Biomoleculur Screening, 2003, 453-462; Obach, DMD, 1999 vol 27. N 11, 1350-1359).

[2] = Microsomal half-life / microsomal clearance, human liver microsomes; format: in vitro ADME; conditions: 0.5 μM test substance, 0.25 mg microsomal protein/ml, pH 7.4, 37° C.
Procedure: as §1, §2, §3

Chain of PDE10A (Q9Y233 whole entry, species assumed, canonical isoform): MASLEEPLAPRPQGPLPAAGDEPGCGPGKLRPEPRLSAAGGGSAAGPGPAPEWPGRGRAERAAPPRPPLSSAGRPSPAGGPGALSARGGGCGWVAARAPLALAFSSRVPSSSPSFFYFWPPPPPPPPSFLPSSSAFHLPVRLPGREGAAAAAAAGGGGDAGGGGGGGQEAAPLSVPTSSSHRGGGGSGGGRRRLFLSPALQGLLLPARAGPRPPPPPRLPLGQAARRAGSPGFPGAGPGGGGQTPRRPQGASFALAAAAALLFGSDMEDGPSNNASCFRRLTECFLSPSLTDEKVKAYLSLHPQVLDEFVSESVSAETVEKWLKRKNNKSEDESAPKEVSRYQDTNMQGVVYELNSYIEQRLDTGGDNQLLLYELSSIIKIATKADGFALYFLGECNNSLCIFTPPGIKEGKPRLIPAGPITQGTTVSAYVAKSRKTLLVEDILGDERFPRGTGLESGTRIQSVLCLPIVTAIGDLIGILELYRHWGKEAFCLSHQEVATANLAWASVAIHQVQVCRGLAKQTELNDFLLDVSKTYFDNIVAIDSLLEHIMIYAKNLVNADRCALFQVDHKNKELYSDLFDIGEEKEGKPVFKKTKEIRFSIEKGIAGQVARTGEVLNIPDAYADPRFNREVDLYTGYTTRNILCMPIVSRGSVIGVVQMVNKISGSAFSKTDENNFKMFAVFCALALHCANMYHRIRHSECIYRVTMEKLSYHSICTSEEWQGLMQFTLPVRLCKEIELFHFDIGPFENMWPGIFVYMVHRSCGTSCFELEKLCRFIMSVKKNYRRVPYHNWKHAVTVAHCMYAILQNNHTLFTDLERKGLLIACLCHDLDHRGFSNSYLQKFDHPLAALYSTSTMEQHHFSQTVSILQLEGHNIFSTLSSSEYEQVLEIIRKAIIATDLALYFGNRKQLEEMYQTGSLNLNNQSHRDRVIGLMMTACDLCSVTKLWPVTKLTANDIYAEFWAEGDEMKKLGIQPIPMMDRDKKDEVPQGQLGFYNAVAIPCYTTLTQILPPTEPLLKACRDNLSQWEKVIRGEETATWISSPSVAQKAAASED

SMILES | IC50 (PDE10A) [nM] | Rat mCl [1] | Human mCl [2]
Cn1cc(-c2ccncc2)c(-c2ccc(C#Cc3ccccn3)cc2)n1 [Example 2, 2-((4-(1-methyl-4-(pyridin-4-yl)-1H-pyrazol-3-yl)phenyl)ethynyl)pyridine] | < 100 | ++ (<100 μl min^−1 mg^−1) | ++ (<100 μl min^−1 mg^−1)
Cc1ccc(C#Cc2ccc(-c3nn(C)cc3-c3ccncc3)cc2)nc1 [Example 3, 5-methyl-2-((4-(1-methyl-4-(pyridin-4-yl)-1H-pyrazol-3-yl)phenyl)ethynyl)pyridine] | < 100 | ++ (<100 μl min^−1 mg^−1) | ++ (<100 μl min^−1 mg^−1)
CCCn1cc(C#Cc2ccc(-c3nn(C)cc3-c3ccncc3)cc2)cn1 [Example 4, 4-(1-methyl-3-(4-((1-propyl-1H-pyrazol-4-yl)ethynyl)phenyl)-1H-pyrazole-4-yl)pyridine] |  |  | ++ (<100 μl min^−1 mg^−1)
Cn1cc(-c2ccncc2)c(-c2ccc(C#Cc3ccc(F)cn3)cc2)n1 [Example 5, 5-Fluoro-2-((4-(1-methyl-4-(pyridin-4-yl)-1H-pyrazol-3-yl)phenyl)ethynyl)pyridine] | < 100 | ++ (<100 μl min^−1 mg^−1) | ++ (<100 μl min^−1 mg^−1)
Cc1cccnc1C#Cc1ccc(-c2nn(C)cc2-c2ccncc2)cc1 [Example 6, 3-Methyl-2-((4-(1-methyl-4-(pyridin-4-yl)-1H-pyrazol-3-yl)phenyl)ethynyl)pyridine] | < 100 | ++ (<100 μl min^−1 mg^−1) | ++ (<100 μl min^−1 mg^−1)
Cn1cc(-c2ccncc2)c(-c2ccc(C#Cc3nccn3C)cc2)n1 [Example 7, 4-(1-methyl-3-(4-((1-methyl-1H-imidazol-2-yl)ethynyl)phenyl)-1H-pyrazole-4-yl)pyridine] | < 100 | ++ (<100 μl min^−1 mg^−1) | ++ (<100 μl min^−1 mg^−1)
Cc1ccnc(C#Cc2ccc(-c3nn(C)cc3-c3ccncc3)cc2)c1 [Example 8, 4-Methyl-2-((4-(1-methyl-4-(pyridin-4-yl)-1H-pyrazol-3-yl)phenyl)ethynyl)pyridine] | < 100 | ++ (<100 μl min^−1 mg^−1) | ++ (<100 μl min^−1 mg^−1)
Cc1cccc(C#Cc2ccc(-c3nn(C)cc3-c3ccncc3)cc2)n1 [Example 9, 2-Methyl-6-((4-(1-methyl-4-(pyridin-4-yl)-1H-pyrazol-3-yl)phenyl)ethynyl)pyridine] | < 100 | ++ (<100 μl min^−1 mg^−1) | ++ (<100 μl min^−1 mg^−1)
Cn1cc(-c2ccncc2)c(-c2ccc(C#Cc3ccc4ccccc4n3)cc2)n1 [Example 12, 2-((4-(1-methyl-4-(pyridin-4-yl)-1H-pyrazol-3-yl)phenyl)ethynyl)quinoline] | < 100 | ++ (<100 μl min^−1 mg^−1) | ++ (<100 μl min^−1 mg^−1)
Cn1cc(-c2ccncc2)c(-c2ccc(C#Cc3ccc4ncccc4n3)cc2)n1 [Example 13, 2-[2-[4-[1-methyl-4-(4-pyridyl)pyrazol-3-yl]phenyl]ethynyl]-1,5-naphthyridine] | < 100 | ++ (<100 μl min^−1 mg^−1) | ++ (<100 μl min^−1 mg^−1)
Cn1cc(-c2ccncc2)c(-c2ccc(C#Cc3cn4ccccc4n3)cc2)n1 [Example 14, 2-[2-[4-[1-methyl-4-(4-pyridyl)pyrazol-3-yl]phenyl]ethynyl]imidazo[1,2-a]pyridine] | < 100 | ++ (<100 μl min^−1 mg^−1) | ++ (<100 μl min^−1 mg^−1)
Cn1cc(-c2ccncc2)c(-c2ccc(C#Cc3ccc4cc[nH]c4n3)cc2)n1 [Example 15, 6-[2-[4-[1-methyl-4-(4-pyridyl)pyrazol-3-yl]phenyl]ethynyl]-1H-pyrrolo[2,3-b]pyridine] | < 100 | ++ (<100 μl min^−1 mg^−1) | ++ (<100 μl min^−1 mg^−1)
Cc1cc(C#Cc2ccc(-c3nn(C)cc3-c3ccncc3)cc2)nc2ccccc12 [Example 16, 4-methyl-2-[2-[4-[1-methyl-4-(4-pyridyl)pyrazol-3-yl]phenyl]ethynyl]quinoline] | < 100 | ++ (<100 μl min^−1 mg^−1) | ++ (<100 μl min^−1 mg^−1)
Cn1cc(-c2ccncc2)c(-c2ccc(C#Cc3nccs3)cc2)n1.O=C(O)C(F)(F)F [Example 17, 2-[2-[4-[1-methyl-4-(4-pyridyl)pyrazol-3-yl]phenyl]ethynyl]thiazole; 2,2,2-trifluoroacetic acid] | 100 to 200 | ++ (<100 μl min^−1 mg^−1) | ++ (<100 μl min^−1 mg^−1)
Cn1cc(-c2ccncc2)c(-c2ccc(C#Cc3cnc4ccccc4n3)cc2)n1.O=C(O)C(F)(F)F [Example 18, 2-[2-[4-[1-methyl-4-(4-pyridyl)pyrazol-3-yl]phenyl]ethynyl]quinoxaline; 2,2,2-trifluoroacetic acid] | < 100 | ++ (<100 μl min^−1 mg^−1) | ++ (<100 μl min^−1 mg^−1)
Cc1cccc(C#Cc2c(-c3ccncc3)nc3n2CCC3)n1.O=C(O)C(F)(F)F [Example 19, 3-[2-(6-methyl-2-pyridyl)ethynyl]-2-(4-pyridyl)-6,7-dihydro-5H-pyrrolo[1,2-a]imidazole; 2,2,2-trifluoroacetic acid] |  | + (100-220 μl min^−1 mg^−1) | + (100-220 μl min^−1 mg^−1)
COc1cccc(C#Cc2ccc(-c3nn(C)cc3-c3ccncc3)cc2)n1.O=C(O)C(F)(F)F [Example 20, 2-methoxy-6-[2-[4-[1-methyl-4-(4-pyridyl)pyrazol-3-yl]phenyl]ethynyl]pyridine; 2,2,2-trifluoroacetic acid] | < 100 | ++ (<100 μl min^−1 mg^−1) | ++ (<100 μl min^−1 mg^−1)
COc1cccnc1C#Cc1ccc(-c2nn(C)cc2-c2ccncc2)cc1 [Example 21, 3-methoxy-2-[2-[4-[1-methyl-4-(4-pyridyl)pyrazol-3-yl]phenyl]ethynyl]pyridine] | < 100 | ++ (<100 μl min^−1 mg^−1) | ++ (<100 μl min^−1 mg^−1)
Cc1cccc(C#Cc2ccc(-c3c(-c4ccncc4)nc4n3CCC4)cc2)n1 [Example 23, 3-[4-[2-(6-methyl-2-pyridyl)ethynyl]phenyl]-2-(4-pyridyl)-6,7-dihydro-5H-pyrrolo[1,2-a]imidazole] | 100 to 200 | ++ (<100 μl min^−1 mg^−1) | ++ (<100 μl min^−1 mg^−1)
Cc1cccc(C#Cc2ccc(-c3nn(C)cc3-c3cn[nH]c3)cc2)n1 [Example 24, 2-methyl-6-[2-[4-[1-methyl-4-(1H-pyrazol-4-yl)pyrazol-3-yl]phenyl]ethynyl]pyridine] | 200 to 500 | ++ (<100 μl min^−1 mg^−1) | ++ (<100 μl min^−1 mg^−1)
Cc1cccc(C#Cc2ccc(-c3nn(C)cc3-c3cncnc3)cc2)n1 [Example 25, 5-[1-methyl-3-[4-[2-(6-methyl-2-pyridyl)ethynyl]phenyl]pyrazol-4-yl]pyrimidine] | 100 to 200 |  | 
Cc1cccc(C#Cc2ccc(-c3nn(C)cc3-c3ccnnc3)cc2)n1 [Example 28, 4-[1-methyl-3-[4-[2-(6-methyl-2-pyridyl)ethynyl]phenyl]pyrazol-4-yl]pyridazine] | < 100 |  | 
COc1ccc(-c2cn(C)nc2-c2ccc(C#Cc3cccc(C)n3)cc2)cc1 [Example 31, 2-[2-[4-[4-(4-methoxyphenyl)-1-methyl-pyrazol-3-yl]phenyl]ethynyl]-6-methylpyridine; 2,2,2-trifluoroacetic acid] | 100 to 200 |  | 

From patent US9790203B2, “Inhibitor compounds of phosphodiesterase type 10A” (ABBVIE DEUTSCHLAND GMBH & CO. KG, priority 2012, dated 2017)
